According to PubChem BioAssay (NCI):
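Briefly, cells in 96-well plates were exposed to five compound concentrations for 48 h, and endpoints were estimated by linear interpolation. TGI: total growth inhibition.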

Columns and labels:
Test in all cases: inhibition of tumour cell growth, NCI panel, 48 h
786-0 renal = tested on: 786-0 renal
A498 renal = tested on: A498 renal
A549 NSCLC = tested on: A549 NSCLC
ACHN renal = tested on: ACHN renal
CAKI-1 renal = tested on: CAKI-1 renal
CCRF-CEM leukemia = tested on: CCRF-CEM leukemia
COLO 205 colon = tested on: COLO 205 colon
DLD-1 colon = tested on: DLD-1 colon
DMS 114 small cell lung = tested on: DMS 114 small cell lung
DMS 273 small cell lung = tested on: DMS 273 small cell lung
EKVX NSCLC = tested on: EKVX NSCLC
HCC-2998 colon = tested on: HCC-2998 colon
HCT-116 colon = tested on: HCT-116 colon
HCT-15 colon = tested on: HCT-15 colon
HOP-18 NSCLC = tested on: HOP-18 NSCLC
HOP-62 NSCLC = tested on: HOP-62 NSCLC
HT29 colon = tested on: HT29 colon
IGROV1 ovarian = tested on: IGROV1 ovarian
K-562 leukemia = tested on: K-562 leukemia
KM12 colon = tested on: KM12 colon
KM20L2 colon = tested on: KM20L2 colon
LOX IMVI melanoma = tested on: LOX IMVI melanoma
M14 melanoma = tested on: M14 melanoma
M19-MEL melanoma = tested on: M19-MEL melanoma
MALME-3M melanoma = tested on: MALME-3M melanoma
NCI-H226 lung = tested on: NCI-H226 lung
NCI-H23 lung = tested on: NCI-H23 lung
NCI-H460 lung = tested on: NCI-H460 lung
OVCAR-3 ovarian = tested on: OVCAR-3 ovarian
OVCAR-4 ovarian = tested on: OVCAR-4 ovarian
OVCAR-5 ovarian = tested on: OVCAR-5 ovarian
OVCAR-8 ovarian = tested on: OVCAR-8 ovarian
RPMI-8226 leukemia = tested on: RPMI-8226 leukemia
RXF-631 renal = tested on: RXF-631 renal
SF-268 CNS = tested on: SF-268 CNS
SF-295 CNS = tested on: SF-295 CNS
SF-539 CNS = tested on: SF-539 CNS
SK-MEL-2 melanoma = tested on: SK-MEL-2 melanoma
SK-MEL-28 melanoma = tested on: SK-MEL-28 melanoma
SK-MEL-5 melanoma = tested on: SK-MEL-5 melanoma
SK-OV-3 ovarian = tested on: SK-OV-3 ovarian
SN12C renal = tested on: SN12C renal
SNB-19 CNS = tested on: SNB-19 CNS
SNB-75 CNS = tested on: SNB-75 CNS
SNB-78 CNS = tested on: SNB-78 CNS
SW-620 colon = tested on: SW-620 colon
TK-10 renal = tested on: TK-10 renal
U251 CNS = tested on: U251 CNS
UACC-257 melanoma = tested on: UACC-257 melanoma
UACC-62 melanoma = tested on: UACC-62 melanoma
UO-31 renal = tested on: UO-31 renal
HL-60(TB) leukemia = tested on: HL-60(TB) leukemia
HOP-92 NSCLC = tested on: HOP-92 NSCLC
LXFL 529 NSCLC = tested on: LXFL 529 NSCLC
MOLT-4 leukemia = tested on: MOLT-4 leukemia
NCI-H522 lung = tested on: NCI-H522 lung
RXF 393 renal = tested on: RXF 393 renal
XF 498 CNS = tested on: XF 498 CNS

## Nc1nc(N)c(CCCCc2ccccc2)c(C=O)n1
786-0 renal
  TGI: 29.4 µM
A498 renal
  TGI: > 100 µM
A549 NSCLC
  TGI: > 100 µM
ACHN renal
  TGI: 51.6 µM
CAKI-1 renal
  TGI: > 100 µM
CCRF-CEM leukemia
  TGI: 40.1 µM
COLO 205 colon
  TGI: > 100 µM
DLD-1 colon
  TGI: 46.2 µM
DMS 114 small cell lung
  TGI: 34.4 µM
DMS 273 small cell lung
  TGI: 39.1 µM
EKVX NSCLC
  TGI: 46.4 µM
HCC-2998 colon
  TGI: 76.6 µM
HCT-116 colon
  TGI: 27.9 µM
HCT-15 colon
  TGI: 45.4 µM
HOP-18 NSCLC
  TGI: 89.2 µM
HOP-62 NSCLC
  TGI: > 100 µM
HT29 colon
  TGI: 26.5 µM
IGROV1 ovarian
  TGI: 38.1 µM
K-562 leukemia
  TGI: 24.3 µM
KM12 colon
  TGI: 40.8 µM
KM20L2 colon
  TGI: 90 µM
LOX IMVI melanoma
  TGI: 32.8 µM
M14 melanoma
  TGI: 44.1 µM
M19-MEL melanoma
  TGI: 29.5 µM
MALME-3M melanoma
  TGI: 36.3 µM
NCI-H226 lung
  TGI: 53.7 µM
NCI-H23 lung
  TGI: 41.3 µM
NCI-H460 lung
  TGI: > 100 µM
OVCAR-3 ovarian
  TGI: 32.6 µM
OVCAR-4 ovarian
  TGI: 70.6 µM
OVCAR-5 ovarian
  TGI: > 100 µM
OVCAR-8 ovarian
  TGI: 45 µM
RPMI-8226 leukemia
  TGI: 41.2 µM
RXF-631 renal
  TGI: > 100 µM
SF-268 CNS
  TGI: 43.3 µM
SF-295 CNS
  TGI: 64.7 µM
SF-539 CNS
  TGI: 36.3 µM
SK-MEL-2 melanoma
  TGI: 40.3 µM
SK-MEL-28 melanoma
  TGI: 32.3 µM
SK-MEL-5 melanoma
  TGI: 34.9 µM
SK-OV-3 ovarian
  TGI: 95.5 µM
SN12C renal
  TGI: 39.1 µM
SNB-19 CNS
  TGI: 38.3 µM
SNB-75 CNS
  TGI: 38 µM
SNB-78 CNS
  TGI: 81.6 µM
SW-620 colon
  TGI: 30.9 µM
TK-10 renal
  TGI: 93 µM
U251 CNS
  TGI: 49.6 µM
UACC-257 melanoma
  TGI: 33.3 µM
UACC-62 melanoma
  TGI: 30.8 µM
UO-31 renal
  TGI: 45.4 µM

## O=C(CCC(=O)Nc1ccc(Cl)c(Cl)c1)CC(=O)c1ccc2ccccc2c1
786-0 renal
  TGI: > 100 µM
A498 renal
  TGI: > 100 µM
A549 NSCLC
  TGI: > 100 µM
ACHN renal
  TGI: > 100 µM
CAKI-1 renal
  TGI: > 100 µM
CCRF-CEM leukemia
  TGI: > 100 µM
DLD-1 colon
  TGI: > 100 µM
DMS 114 small cell lung
  TGI: > 100 µM
DMS 273 small cell lung
  TGI: > 100 µM
EKVX NSCLC
  TGI: > 100 µM
HCC-2998 colon
  TGI: > 100 µM
HCT-116 colon
  TGI: > 100 µM
HCT-15 colon
  TGI: > 100 µM
HL-60(TB) leukemia
  TGI: > 100 µM
HOP-18 NSCLC
  TGI: > 100 µM
HOP-62 NSCLC
  TGI: > 100 µM
HOP-92 NSCLC
  TGI: > 100 µM
HT29 colon
  TGI: > 100 µM
IGROV1 ovarian
  TGI: > 100 µM
K-562 leukemia
  TGI: > 100 µM
KM12 colon
  TGI: > 100 µM
KM20L2 colon
  TGI: > 100 µM
LOX IMVI melanoma
  TGI: > 100 µM
LXFL 529 NSCLC
  TGI: > 100 µM
M14 melanoma
  TGI: > 100 µM
M19-MEL melanoma
  TGI: > 100 µM
MALME-3M melanoma
  TGI: > 100 µM
MOLT-4 leukemia
  TGI: > 100 µM
NCI-H226 lung
  TGI: > 100 µM
NCI-H23 lung
  TGI: > 100 µM
NCI-H460 lung
  TGI: > 100 µM
NCI-H522 lung
  TGI: > 100 µM
OVCAR-3 ovarian
  TGI: > 100 µM
OVCAR-4 ovarian
  TGI: > 100 µM
OVCAR-5 ovarian
  TGI: > 100 µM
OVCAR-8 ovarian
  TGI: > 100 µM
RPMI-8226 leukemia
  TGI: > 100 µM
RXF 393 renal
  TGI: > 100 µM
RXF-631 renal
  TGI: > 100 µM
SF-268 CNS
  TGI: > 100 µM
SF-295 CNS
  TGI: > 100 µM
SF-539 CNS
  TGI: > 100 µM
SK-MEL-2 melanoma
  TGI: > 100 µM
SK-MEL-28 melanoma
  TGI: > 100 µM
SK-MEL-5 melanoma
  TGI: > 100 µM
SN12C renal
  TGI: > 100 µM
SNB-19 CNS
  TGI: > 100 µM
SNB-75 CNS
  TGI: > 100 µM
SNB-78 CNS
  TGI: > 100 µM
SW-620 colon
  TGI: > 100 µM
TK-10 renal
  TGI: > 100 µM
U251 CNS
  TGI: > 100 µM
UACC-257 melanoma
  TGI: > 100 µM
UACC-62 melanoma
  TGI: > 100 µM
UO-31 renal
  TGI: > 100 µM

## COc1cccc2c1OC1Sc3ccccc3-c3nn(-c4ccccc4)c-2c31 (stereo not given)
786-0 renal
  TGI: > 100 µM
A498 renal
  TGI: > 100 µM
A549 NSCLC
  TGI: > 100 µM
ACHN renal
  TGI: > 100 µM
CCRF-CEM leukemia
  TGI: > 100 µM
COLO 205 colon
  TGI: > 100 µM
DLD-1 colon
  TGI: > 100 µM
DMS 114 small cell lung
  TGI: > 100 µM
DMS 273 small cell lung
  TGI: > 100 µM
EKVX NSCLC
  TGI: > 100 µM
HCC-2998 colon
  TGI: > 100 µM
HCT-116 colon
  TGI: > 100 µM
HL-60(TB) leukemia
  TGI: > 100 µM
HOP-18 NSCLC
  TGI: > 100 µM
HOP-62 NSCLC
  TGI: > 100 µM
HOP-92 NSCLC
  TGI: > 100 µM
HT29 colon
  TGI: > 100 µM
IGROV1 ovarian
  TGI: > 100 µM
K-562 leukemia
  TGI: > 100 µM
KM12 colon
  TGI: > 100 µM
KM20L2 colon
  TGI: > 100 µM
LOX IMVI melanoma
  TGI: > 100 µM
LXFL 529 NSCLC
  TGI: > 100 µM
M19-MEL melanoma
  TGI: > 100 µM
MALME-3M melanoma
  TGI: > 100 µM
MOLT-4 leukemia
  TGI: > 100 µM
NCI-H23 lung
  TGI: > 100 µM
NCI-H460 lung
  TGI: > 100 µM
NCI-H522 lung
  TGI: > 100 µM
OVCAR-3 ovarian
  TGI: > 100 µM
OVCAR-5 ovarian
  TGI: > 100 µM
OVCAR-8 ovarian
  TGI: > 100 µM
RPMI-8226 leukemia
  TGI: > 100 µM
RXF 393 renal
  TGI: > 100 µM
RXF-631 renal
  TGI: > 100 µM
SF-268 CNS
  TGI: > 100 µM
SF-295 CNS
  TGI: > 100 µM
SF-539 CNS
  TGI: > 100 µM
SK-MEL-2 melanoma
  TGI: > 100 µM
SK-MEL-28 melanoma
  TGI: > 100 µM
SK-OV-3 ovarian
  TGI: > 100 µM
SNB-75 CNS
  TGI: > 100 µM
SNB-78 CNS
  TGI: > 100 µM
SW-620 colon
  TGI: > 100 µM
TK-10 renal
  TGI: > 100 µM
U251 CNS
  TGI: > 100 µM
UACC-257 melanoma
  TGI: > 100 µM
UO-31 renal
  TGI: > 100 µM
XF 498 CNS
  TGI: > 100 µM
